Experimental data: ChEMBL document CHEMBL1806384, “Identification of benzofuran-4,5-diones as novel and selective non-hydroxamic acid, non-peptidomimetic based inhibitors of human peptide deformylase” (Bioorg Med Chem Lett, 2011)

How the values were obtained:
[1] = target: T1, Peptide deformylase, mitochondrial (Homo sapiens) (UniProt Q9HBH1); test: Inhibition of human peptide deformylase at 100 uM after 1 hr by fluorescence polarization based competition assay
T1 sequence (whole entry): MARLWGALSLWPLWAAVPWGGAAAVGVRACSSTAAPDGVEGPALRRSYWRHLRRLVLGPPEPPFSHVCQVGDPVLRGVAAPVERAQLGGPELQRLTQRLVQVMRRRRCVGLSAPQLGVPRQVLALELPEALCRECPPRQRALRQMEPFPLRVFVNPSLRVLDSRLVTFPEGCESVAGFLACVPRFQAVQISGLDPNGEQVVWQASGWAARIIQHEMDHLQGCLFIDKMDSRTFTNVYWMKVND

[2] = target: T2, Peptide deformylase (Escherichia coli) (UniProt Q9JN24); test: Inhibition of Escherichia coli peptide deformylase at 100 uM after 1 hr by fluorescence polarization based competition assay
T2 sequence (whole entry): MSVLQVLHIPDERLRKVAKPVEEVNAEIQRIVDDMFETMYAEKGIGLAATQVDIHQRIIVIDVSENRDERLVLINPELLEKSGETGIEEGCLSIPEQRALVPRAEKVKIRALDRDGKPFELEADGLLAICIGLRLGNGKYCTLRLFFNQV

[3] = target: T3, Aminopeptidase N (Sus scrofa) (UniProt P15145); test: Inhibition of porcine kidney microsomal aminopeptidase N at 100 uM after 1 hr by fluorescence polarization based competition assay
T3 sequence (whole entry): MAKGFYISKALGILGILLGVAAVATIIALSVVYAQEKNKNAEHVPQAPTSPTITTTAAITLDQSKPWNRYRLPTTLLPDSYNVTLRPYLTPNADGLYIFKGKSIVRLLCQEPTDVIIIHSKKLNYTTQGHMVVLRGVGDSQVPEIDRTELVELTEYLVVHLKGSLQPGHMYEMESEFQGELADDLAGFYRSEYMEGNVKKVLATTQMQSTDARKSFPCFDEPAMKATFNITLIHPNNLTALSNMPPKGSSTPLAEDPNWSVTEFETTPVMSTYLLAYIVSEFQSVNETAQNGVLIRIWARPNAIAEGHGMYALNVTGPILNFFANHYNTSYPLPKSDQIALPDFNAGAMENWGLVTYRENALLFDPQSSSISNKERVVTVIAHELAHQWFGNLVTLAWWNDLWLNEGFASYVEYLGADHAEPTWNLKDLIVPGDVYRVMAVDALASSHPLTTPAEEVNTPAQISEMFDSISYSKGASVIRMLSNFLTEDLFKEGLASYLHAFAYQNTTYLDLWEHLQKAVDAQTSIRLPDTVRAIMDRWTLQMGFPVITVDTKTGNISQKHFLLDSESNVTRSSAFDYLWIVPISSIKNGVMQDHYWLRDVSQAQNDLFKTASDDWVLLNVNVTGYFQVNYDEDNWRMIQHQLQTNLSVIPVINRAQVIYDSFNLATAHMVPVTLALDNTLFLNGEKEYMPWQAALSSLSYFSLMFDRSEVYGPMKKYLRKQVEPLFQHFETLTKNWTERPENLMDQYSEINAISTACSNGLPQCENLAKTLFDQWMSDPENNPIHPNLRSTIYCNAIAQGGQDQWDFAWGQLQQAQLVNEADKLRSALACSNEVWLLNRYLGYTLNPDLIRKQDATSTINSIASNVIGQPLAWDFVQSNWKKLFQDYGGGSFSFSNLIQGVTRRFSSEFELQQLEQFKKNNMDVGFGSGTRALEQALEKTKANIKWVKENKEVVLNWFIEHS

[4] = target: T4, Interstitial collagenase (Homo sapiens) (UniProt P03956); test: Inhibition of human recombinant MMP1 at 100 uM after 1 hr by fluorescence polarization based competition assay
T4 sequence (whole entry): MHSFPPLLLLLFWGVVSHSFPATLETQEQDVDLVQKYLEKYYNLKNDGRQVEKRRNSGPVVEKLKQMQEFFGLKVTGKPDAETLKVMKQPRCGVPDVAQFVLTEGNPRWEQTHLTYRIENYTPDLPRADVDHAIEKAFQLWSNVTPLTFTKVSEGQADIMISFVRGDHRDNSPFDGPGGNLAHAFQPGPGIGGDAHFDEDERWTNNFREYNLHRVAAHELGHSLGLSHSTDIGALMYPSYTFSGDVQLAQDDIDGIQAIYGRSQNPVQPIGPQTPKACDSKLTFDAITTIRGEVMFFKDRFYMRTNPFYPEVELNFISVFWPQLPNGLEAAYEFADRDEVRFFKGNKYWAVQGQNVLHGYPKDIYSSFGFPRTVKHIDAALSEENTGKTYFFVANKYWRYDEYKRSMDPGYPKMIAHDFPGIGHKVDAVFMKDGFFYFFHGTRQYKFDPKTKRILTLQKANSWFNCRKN

HL-60 [5] = test: Cytotoxicity against human HL60 cells; type: functional, cell-based
HL-60 [6] = test: Cytotoxicity against human vincristine-resistant HL60 cells; type: functional, cell-based
Jurkat = test: Cytotoxicity against human Jurkat cells; type: functional, cell-based
MOLT-3 = test: Cytotoxicity against human MOLT3 cells; type: functional, cell-based
[7] = Cytotoxicity against human ALL3 cells; type: functional, cell-based
[8] = Cytotoxicity against human CWR22 cells; type: functional, cell-based
HEK293 = test: Cytotoxicity against human HEK293 cells; type: cell-based
Y79 = test: Cytotoxicity against human Y79 cells; type: functional, cell-based
[9] = Cytotoxicity against human Meso47 cells; type: functional, cell-based
Peptide deformylase = target: T5, Peptide deformylase (Escherichia coli, UniProt Q9JN24); test: Inhibition of Escherichia coli peptide deformylase after 1 hr by fluorescence polarization based competition assay
T5 sequence (Q9JN24 whole entry): T2 sequence (whole entry)

Compound | inhibition [1] | inhibition [2] | inhibition [3] | inhibition [4] | IC50 (HL-60 [5]) | IC50 (HL-60 [6]) | IC50 (Jurkat) | IC50 (MOLT-3) | IC50 [7] | IC50 [8] | IC50 (HEK293) | IC50 (Y79) | IC50 [9] | IC50 (Peptide deformylase)
O=C(c1ccccc1)c1coc2ccc(O)cc12 | 11% | 7% | 10% | 0% | 100 µM | 100 µM | 100 µM | 100 µM | 100 µM | 100 µM | 100 µM | 100 µM | 100 µM | 
O=C(c1ccccc1)c1coc2c(Cl)c(Cl)c(O)cc12 | 24% | 1% | 6% | 0% | 100 µM | 100 µM | 100 µM | 100 µM | 100 µM | 100 µM | 100 µM | 100 µM | 100 µM | 
COc1ccc(C(=O)c2coc3c(Cl)c(Cl)c(O)cc23)cc1OC | 0% | 0% | 0% | 0% | 100 µM | 100 µM | 100 µM | 100 µM | 100 µM | 100 µM | 100 µM | 100 µM | 100 µM | 
COc1ccc(C(=O)c2coc3c2C(=O)C(=O)c2ccccc2-3)cc1 | 0% | 3% | 0% | 2% |  |  |  |  |  |  |  |  |  | 
COc1cc(C(=O)c2coc3c(Br)c(Br)c(O)cc23)cc(OC)c1OC | 5% | 7% | 10% | 0% | 79 µM | 100 µM | 62 µM | 100 µM | 60 µM | 100 µM | 100 µM | 100 µM | 100 µM | 
COc1ccc(C(=O)c2coc3c2C(=O)C(=O)c2ccccc2-3)cc1OC | 0% | 0% | 0% | 0% |  |  |  |  |  |  |  |  |  | 
COc1ccc(C(=O)c2coc3c2C(=O)C(=O)C(Cl)=C3)cc1 | 100% | 11% | 54% | 11% | 32 µM |  | 57 µM | 47 µM | 34 µM |  | 100 µM |  |  | > 100 µM
COc1cc(C(=O)c2coc3c(Cl)c(Cl)c(O)cc23)cc(OC)c1OC | 18% | 2% | 2% | 0% | 100 µM | 100 µM | 100 µM | 100 µM | 100 µM | 100 µM | 100 µM | 100 µM | 100 µM | 
COc1cc(C(=O)c2coc3c2C(=O)C(=O)c2ccccc2-3)cc(OC)c1OC | 5% | 7% | 10% | 0% |  |  |  |  |  |  |  |  |  | 

Now from value to compound, other results behind:

inhibition [1] | inhibition [2] | inhibition [3] | inhibition [4] | Compound | IC50 (HL-60 [5]) | IC50 (HL-60 [6]) | IC50 (Jurkat) | IC50 (MOLT-3) | IC50 [7] | IC50 [8] | IC50 (HEK293) | IC50 (Y79) | IC50 [9] | IC50 (Peptide deformylase)
0% | 0% | 4% | 0% | COc1ccc(C(=O)c2coc3ccc(O)cc23)cc1 | 100 µM | 100 µM | 33 µM | 100 µM | 100 µM | 100 µM | 100 µM | 100 µM | 100 µM | 
0% | 0% | 0% | 0% | COc1ccc(C(=O)c2coc3c(Br)cc(O)c(Br)c23)cc1 | 9 µM | 40 µM | 8 µM | 10 µM | 68 µM | 57 µM | 10 µM | 64 µM | 100 µM | 
0% | 3% | 0% | 2% | COc1ccc(C(=O)c2coc3c(Br)c(Br)c(O)cc23)cc1 | 100 µM | 100 µM | 100 µM | 100 µM | 100 µM | 100 µM | 100 µM | 100 µM | 100 µM | 
9% | 0% | 0% | 0% | COc1ccc(C(=O)c2coc3c(Cl)cc(O)c(Cl)c23)cc1 | 100 µM | 100 µM | 100 µM | 100 µM | 100 µM | 100 µM | 100 µM | 100 µM | 100 µM | 
26% | 3% | 0% | 0% | COc1ccc(C(=O)c2coc3cc(Cl)c(O)c(Cl)c23)cc1 | 19 µM | 100 µM | 24 µM | 32 µM | 100 µM | 100 µM | 32 µM | 100 µM | 100 µM | 
0% | 0% | 0% | 0% | COc1ccc(C(=O)c2coc3c(Br)c(Br)c(O)cc23)cc1OC | 57 µM | 100 µM | 37 µM | 52 µM | 100 µM | 100 µM | 52 µM | 100 µM | 100 µM | 
0% | 0% | 0% | 10% | COc1ccc(C(=O)c2coc3cc(Br)c(O)cc23)cc1 | 100 µM | 100 µM | 100 µM | 72 µM | 100 µM | 47 µM | 72 µM | 100 µM | 100 µM | 
11% | 9% | 0% | 0% | COc1ccc(C(=O)c2coc3c(Br)cc(O)cc23)cc1 | 100 µM | 100 µM | 100 µM | 100 µM | 100 µM | 100 µM | 100 µM | 100 µM | 100 µM | 
0% | 0% | 0% | 0% | COc1ccc(C(=O)c2coc3ccc(O)c(Br)c23)cc1 | 100 µM | 100 µM | 100 µM | 100 µM | 100 µM | 100 µM | 100 µM | 100 µM | 100 µM | 
13% | 0% | 0% | 14% | COc1ccc(C(=O)c2coc3c(Cl)c(Cl)c(O)cc23)cc1 | 100 µM | 100 µM | 100 µM | 100 µM | 100 µM | 100 µM | 100 µM | 100 µM | 100 µM | 
